Results reported in patent US10054581B1, “Inhibitors of notch signaling pathway and use thereof in treatment of cancers” (Ecole Polytechnique Federale de Lausanne (EPFL), priority 2011, dated 2018).
Entries after “also recorded” stand apart in the source; their conditions may differ.

How the values were obtained:
[1] = test system: MMTV-ErbB2 mouse mammary tumors; assay: MMTV-ErbB2 mammary tumor transplantation in FVB mice; type: in vivo; settings: 25 mg/kg on alternate days, established tumors; preliminary results
Experimental: FIGS. 9A-9B show 6-(4-Tert-Butylphenoxy)Pyridin-3-Amine (I3) treatment blocks MMTV-ErbB2 mouse mammary tumors. […] Tubulin served as a loading control. […] Tumor formation was monitored on a regular basis. Once the tumor developed to a volume of 100-300 mm^3′ mice were treated with oil (n=2) or 25 mg/kg of 6-(4-Tert-Butylphenoxy)Pyridin-3-Amine (I3) (n=2). Tumor volume was measured every 6-7 days.
Primary MMTV-ErbB2/Neu mammary tumors were harvested from the mice and a single cell suspension was prepared. 1×10^6 primary tumor cells were suspended in 50 μl of 1×PBS and kept on ice. Three weeks old recipient FVB mice were cleared of their endogenous epithelium and tumor cells were injected into the empty fat pad. Tumor development in the recipient mice was monitored and tumor volumes were measured using digital caliper. Tumor volumes were calculated using following formula: […]length×(width)^2. Once the tumor reached a volume of about 100 mm^3, recipient mice were treated with oil or 25 mg/kg of I3 on alternate days.
In human breast cancer, high levels of Notch1 and Jagged1 proteins correlated with a poor survival of breast cancer patients. In addition, activation of Notch signalling in human breast cancer also facilitates bone and lung metastasis. […] The tumor volume was measured and recorded on regular intervals.

KOPTK1 = assay: Annexin V apoptosis, KOPTK1; type: cell-based, human; settings: 10 μM, 7 days
Experimental: FIGS. 6A-6D show 6-(4-Tert-Butylphenoxy)Pyridin-3-Amine (I3) induces G0/G1 cell cycle arrest and apoptosis in human T cell acute lymphoblastic leukemia cell lines and human breast cancer cell line HCC1187. […] Percentage of Annexin V positive (apoptotic) cell population was measured using flow cytometry.
To quantitate the percentage of apoptotic cells, AnnexinV and 7AAD staining was performed. Thymic cells were suspended in 300 μl of 1× AnnexinV binding buffer (BD Biosciences, San Diego, USA) and incubated with 10 μl of AnnexinV-Cy5 antibody and 10 μl of 7AAD (BD Biosciences, San Diego, USA). Samples were incubated for 15 minutes at room temperature. FACS was performed with in one hour of antibody staining.
This 6-(4-Tert-Butylphenoxy)Pyridin-3-Amine (I3) mediated proliferative arrest could be due to induction of apoptosis or cell cycle arrest during different phases of cell cycle. […] Therefore to further elucidate the mechanisms responsible for 6-(4-Tert-Butylphenoxy)Pyridin-3-Amine (I3) mediated proliferative arrest cell cycle and apoptosis analyses were carried out. […] To investigate cell death, Annexin V staining was performed and proportion of apoptotic (AnnexinV positive) cell population was determined by flow cytometry analyses after 7 days of treatment.

With `CC(C)(C)c1ccc(Oc2ccc(N)cn2)cc1` [I3, 6-(4-Tert-Butylphenoxy)Pyridin-3-Amine] the “tumor volume / tumor progression” value [1] was “caused significant tumor growth retardation; also recorded: exhibited a slow tumor progression compared to oil treated mice; also recorded: led to a block in tumor progression in the mice” and the “apoptosis (Annexin V positive cells)” value (KOPTK1) was “induces significant apoptosis”.
